Measured values reported in patent US20200222474A1, “COMPOSITIONS AND METHODS FOR INCREASING PHYTOCHEMICAL BIOAVAILABLITY AND BIOACTIVITY” (North Carolina State University, priority 2017, published 2020).

Test system: L. acidophilus NCFM
Test: RNA-seq transcriptional analysis of L. acidophilus NCFM growing on plant glycosides
Type: cell-based, Lactobacillus acidophilus
[1] = LBA1955 Transcription regulator family protein, COG K
[2] = gene LBA0046 (Hypothetical protein)
[3] = gene LBA0149 (Putative nucleotide-binding protein)
[4] = gene LBA0263 (Hypothetical protein)
[5] = gene LBA0282 (Hypothetical protein)
[6] = gene LBA0327 (Replication protein)
[7] = gene LBA0328 (Hypothetical protein)
[8] = gene LBA0330 (Hypothetical protein)
[9] = gene LBA0457 (Hypothetical protein)
[10] = gene LBA0485 (Hypothetical protein)
[11] = gene LBA0486 (Hypothetical protein)
[12] = gene LBA0487 (Hypothetical protein.)
[13] = gene LBA0492 (Hypothetical protein)
[14] = gene LBA0541 (Cadmium-transporting ATPase)
[15] = gene LBA0542 (Putative heavy-metal-transporting alpase)
[16] = gene LBA0543 (Hypothetical protein)
[17] = gene LBA0544 (Transcriptional regulator)
[18] = gene LBA0555 (Myosin-crossreactive antigen)
[19] = gene LBA0564 (HAD family hydrolase)
[20] = gene LBA0574 (ABC multi drug exporter)
[21] = gene LBA0575 (ABC multi drug exporter)
[22] = gene LBA0604 (Immunity protein)
[23] = gene LBA0605 (Putative hydrolase)
[24] = gene LBA0608 (Hypothetical protein)
[25] = gene LBA0631 (Hypothetical protein)
[26] = gene LBA0649 (Myosin-crossreactive antigen)
[27] = gene LBA0728 (Hypothetical protein LBA0728)
[28] = gene LBA1025 (Aldo/keto reductase family oxidoreductase)
[29] = gene LBA1026 (Aldo/keto reduetase family oxidoreductase)
[30] = gene LBA1206 (Hypothetical protein)
[31] = gene LBA1401 (Peroxidase (Npx))
[32] = gene LBA1435 (Hypothetical protein)
[33] = gene LBA1455 (Putative surface layer protein)
[34] = gene LBA1656 (Hypothetical protein)
[35] = gene LBA1675 (Hypothetical protein)
[36] = gene LBA1676 (ATP-dependent helicase)
[37] = gene LBA1683 (Putative magnesium-transporting atpase)
[38] = gene LBA1704 (N-Acetylmuramic acid-6-phosphate etherase)
[39] = gene LBA1740 (Hypothetical protein)
[40] = gene LBA1752 (Hypothetical protein)
[41] = gene LBA1769 (Hypothetical protein)
[42] = gene LBA1793 (Hypothetical protein)
[43] = gene LBA1869 (Beta-phosphoglueomutase)
[44] = gene LBA1895 (Hypothetical protein)

`OC[C@H]1O[C@@H](O[C@H]2[C@H](O)[C@@H](O)[C@@H](O)O[C@@H]2CO)[C@H](O)[C@@H](O)[C@H]1O` [Lac] was tested, and the “Log2 differential normalized TPM ratio compared to glucose” value (from here on “Log2 differential normalized TPM ratio”) (LBA1878 Glycerol kinase, COG C) was 0, the “Transcripts per million (rpm)” value (LBA1878 Glycerol kinase, COG C) was 8.9 rpm and the “Log2 differential normalized TPM ratio” value [1] was −0.4. For the same compound, the “Transcripts per million (rpm)” value [1] was 403.9 rpm, the “Log2 differential normalized TPM ratio” value [2] was 0.7 and the “Transcripts per million (rpm)” value [2] was 506.3 rpm. The “Log2 differential normalized TPM ratio” value [3] was 0.8, the “Transcripts per million (rpm)” value [3] was 850.2 rpm and the “Log2 differential normalized TPM ratio” value [4] was 0.7. The “Transcripts per million (rpm)” value [4] was 27 rpm, the “Log2 differential normalized TPM ratio” value [5] was 0.6 and the “Transcripts per million (rpm)” value [5] was 32.7 rpm. For the same compound, the “Log2 differential normalized TPM ratio” value [6] was 0.2, the “Transcripts per million (rpm)” value [6] was 9.5 rpm and the “Log2 differential normalized TPM ratio” value [7] was −0.1. For the same compound, the “Transcripts per million (rpm)” value [7] was 13.2 rpm, the “Log2 differential normalized TPM ratio” value [8] was 0.3 and the “Transcripts per million (rpm)” value [8] was 26.6 rpm. For the same compound, the “Log2 differential normalized TPM ratio” value [9] was 1, the “Transcripts per million (rpm)” value [9] was 977.4 rpm and the “Log2 differential normalized TPM ratio” value [10] was 2.4. The “Transcripts per million (rpm)” value [10] was 1078 rpm, the “Log2 differential normalized TPM ratio” value [11] was 2.8 and the “Transcripts per million (rpm)” value [11] was 1593.4 rpm. The “Log2 differential normalized TPM ratio” value [12] was 1.3, the “Transcripts per million (rpm)” value [12] was 82.6 rpm and the “Log2 differential normalized TPM ratio” value [13] was 2.4. For the same compound, the “Transcripts per million (rpm)” value [13] was 44.2 rpm, the “Log2 differential normalized TPM ratio” value [14] was 2 and the “Transcripts per million (rpm)” value [14] was 167.4 rpm. For the same compound, the “Log2 differential normalized TPM ratio” value [15] was 2.2, the “Transcripts per million (rpm)” value [15] was 409.6 rpm and the “Log2 differential normalized TPM ratio” value [16] was 2.3. The “Transcripts per million (rpm)” value [16] was 345.9 rpm, the “Log2 differential normalized TPM ratio” value [17] was 2 and the “Transcripts per million (rpm)” value [17] was 416.6 rpm. The “Log2 differential normalized TPM ratio” value [18] was 1.9, the “Transcripts per million (rpm)” value [18] was 165.8 rpm and the “Log2 differential normalized TPM ratio” value [19] was 0.5. The “Transcripts per million (rpm)” value [19] was 1.5 rpm, the “Log2 differential normalized TPM ratio” value [20] was 0.3 and the “Transcripts per million (rpm)” value [20] was 109.5 rpm. For the same compound, the “Log2 differential normalized TPM ratio” value [21] was 0.2, the “Transcripts per million (rpm)” value [21] was 93 rpm and the “Log2 differential normalized TPM ratio” value [22] was 0.5. The “Transcripts per million (rpm)” value [22] was 20.8 rpm, the “Log2 differential normalized TPM ratio” value [23] was 1 and the “Transcripts per million (rpm)” value [23] was 5.5 rpm. The “Log2 differential normalized TPM ratio” value [24] was 1.1, the “Transcripts per million (rpm)” value [24] was 75.1 rpm and the “Log2 differential normalized TPM ratio” value [25] was 3.1. For the same compound, the “Transcripts per million (rpm)” value [25] was 10677.4 rpm, the “Log2 differential normalized TPM ratio” value [26] was 0.7 and the “Transcripts per million (rpm)” value [26] was 65.3 rpm. For the same compound, the “Log2 differential normalized TPM ratio” value [27] was 1.8, the “Transcripts per million (rpm)” value [27] was 8.5 rpm and the “Transcripts per million (rpm)” value (gene LBA0802 (Hypothetical protein)) was 40.6 rpm. For the same compound, the “Log2 differential normalized TPM ratio” value (gene LBA0861 (Polyferredoxin)) was 0.5, the “Transcripts per million (rpm)” value (gene LBA0861 (Polyferredoxin)) was 272.1 rpm and the “Log2 differential normalized TPM ratio” value (gene LBA1023 (Oxidoreductase)) was 0.3. The “Transcripts per million (rpm)” value (gene LBA1023 (Oxidoreductase)) was 213.6 rpm, the “Log2 differential normalized TPM ratio” value [28] was 0 and the “Transcripts per million (rpm)” value [28] was 31.7 rpm. For the same compound, the “Log2 differential normalized TPM ratio” value [29] was 0.4, the “Transcripts per million (rpm)” value [29] was 43.3 rpm and the “Log2 differential normalized TPM ratio” value (gene LBA1027 (Oxidoreductase)) was 1.5. For the same compound, the “Transcripts per million (rpm)” value (gene LBA1027 (Oxidoreductase)) was 1733.7 rpm, the “Log2 differential normalized TPM ratio” value [30] was 1.2 and the “Transcripts per million (rpm)” value [30] was 302.8 rpm. The “Log2 differential normalized TPM ratio” value [31] was 2.1, the “Transcripts per million (rpm)” value [31] was 294.6 rpm and the “Log2 differential normalized TPM ratio” value [32] was 3.7. The “Transcripts per million (rpm)” value [32] was 57.4 rpm, the “Log2 differential normalized TPM ratio” value [33] was 1.6 and the “Transcripts per million (rpm)” value [33] was 53.4 rpm. The “Log2 differential normalized TPM ratio” value (gene LBA1469 (UDP-glucose 4-epimerase)) was 5, the “Log2 differential normalized TPM ratio” value [34] was 0.6 and the “Transcripts per million (rpm)” value [34] was 30.6 rpm. For the same compound, the “Log2 differential normalized TPM ratio” value [35] was 1.4, the “Transcripts per million (rpm)” value [35] was 1127.6 rpm and the “Log2 differential normalized TPM ratio” value [36] was 1.2. The “Transcripts per million (rpm)” value [36] was 734.7 rpm, the “Log2 differential normalized TPM ratio” value [37] was −0.2 and the “Transcripts per million (rpm)” value [37] was 14 rpm. The “Log2 differential normalized TPM ratio” value [38] was 0.6, the “Transcripts per million (rpm)” value [38] was 10.7 rpm and the “Log2 differential normalized TPM ratio” value [39] was 0.8. The “Transcripts per million (rpm)” value [39] was 31.5 rpm, the “Log2 differential normalized TPM ratio” value [40] was 0.8 and the “Transcripts per million (rpm)” value [40] was 15.3 rpm. The “Log2 differential normalized TPM ratio” value [41] was 1.9, the “Transcripts per million (rpm)” value [41] was 5636.3 rpm and the “Log2 differential normalized TPM ratio” value [42] was 2.8. The “Transcripts per million (rpm)” value [42] was 117.6 rpm, the “Log2 differential normalized TPM ratio” value (gene LBA1796 (ABC exporter)) was 2.5 and the “Transcripts per million (rpm)” value (gene LBA1796 (ABC exporter)) was 52.4 rpm. The “Log2 differential normalized TPM ratio” value [43] was 2.4, the “Transcripts per million (rpm)” value [43] was 43.9 rpm and the “Log2 differential normalized TPM ratio” value [44] was 0.2. For the same compound, the “Transcripts per million (rpm)” value [44] was 31.9 rpm.
